# In patent publication US10336792B2, “Antimicrobial peptide dendrimers” (priority 2014, dated 2019):
# Positions of bridges follow the written chain, without caps; N, C: chain ends. Non-standard residues stand in square brackets, D forms with d. Residues, ends and D or L forms follow the SMILES beside them. Groups on a side chain read outwards from the residue. Chains are numbered I, II in the order given. *: point of attachment. LeuLys(Leu) = CC(C)C[C@H](N)C(=O)NCCCC[C@H](NC(=O)[C@@H](N)CC(C)C)C(=O)*; Dab = NCC[C@H](N)C(=O)O; Dap = NC[C@H](N)C(=O)O
# Tested on: Pseudomonas aeruginosa (strain PA01)
# Experiment: microbe, parasite or virus in culture
# Format: cell-based
# Details: strain
# Protocol: Antimicrobial activity was assayed against Bacillus subtilis (strain BR151), Escherichia coli (strain DH5α) and Pseudomonas aeruginosa (strain PA01). Microdilution broth method was used to determine the minimal inhibitory concentration (MIC). A colony of bacteria was grown in LB-medium overnight at 37° C. The concentration was quantified by measuring absorbance at 600 nm and diluted to OD600=0.1 (1×10^8 CFU/mL). The samples were prepared as stock solutions of 1 mg mL^−1 in H2O and diluted serially by ⅔ in nutrient LB in a 96-well microtiterplate (Cornstar, polypropylene, untreated). The sample solutions (50 μL) were mixed with the diluted bacterial suspension with an OD600 nm of 0.001 (50 μL). […] The plates were incubated at 37° C. until satisfactory growth (18-24 h). For each test, two columns of the plate were kept for sterility control (SC, broth only) and growth control (GC, broth with bacterial inoculums, no antibiotics). 10 μL of a solution of MTT (0.1% in H2O) was added to each well. The minimal inhibitory concentration (MIC) was defined as the lowest concentration of the antimicrobial substance (peptide dendrimer) that inhibited visible growth of the tested bacteria (yellow) with the unaided eye. For microbiological study the linear peptide LysTyrLysLysAlaLeuLysLysLeuAlaLysLeuLeu (SEQ ID No. 1) was used as reference.
# All peptides were tested for their activity against P. aeruginosa PAO1 in a broth dilution assay (Wiegand, I. et al., 2008, Nat. Protoc., 3, 163-75; Clinical and Laboratory Standards Institute document M7-A7 7th Edition) to determine the MIC (minimal inhibitory concentration) values. The stock solutions of the peptide dendrimers were diluted serially by ⅔ in nutrient LB in 96-well microtiter plates. Bacteria were grown in nutrient LB overnight at 37° C. After dilution the bacteria were added to the peptides and incubated overnight (18-24 h) at 37° C. […] The position of the amino acids between the branching units seems to be optimal if the hydrophobic amino acid is the first counting from C-terminus and the charged one is on the second position. Introducing Ala as additional hydrophobic amino acid reduces activity (MSt-120). […] Also assembling charged or hydrophobic sections between the branching units leads to loss of activity whereas altering L-amino acids to D-amino acids maintains activity leading to the hypothesis that the mechanism of action should not be receptor mediated.
row,Structure (SMILES),MIC P. aeruginosa PAO1 [µg/mL]
1,"CC(C)C[C@H](NC(=O)[C@H](CC(C)C)NC(=O)[C@H](CCCCN)NC(=O)[C@H](CCCCNC(=O)[C@H](CC(C)C)NC(=O)[C@H](CCCCN)NC(=O)[C@H](CC(C)C)NC(=O)[C@H](CCCCNC(=O)[C@H](CC(C)C)NC(=O)[C@H](CCCCN)NC(=O)[C@H](CCCCNC(=O)[C@H](CC(C)C)NC(=O)[C@@H](N)CCCCN)NC(=O)[C@H](CC(C)C)NC(=O)[C@@H](N)CCCCN)NC(=O)[C@H](CC(C)C)NC(=O)[C@H](CCCCN)NC(=O)[C@H](CCCCNC(=O)[C@H](CC(C)C)NC(=O)[C@@H](N)CCCCN)NC(=O)[C@H](CC(C)C)NC(=O)[C@@H](N)CCCCN)NC(=O)[C@H](CC(C)C)NC(=O)[C@H](CCCCN)NC(=O)[C@H](CC(C)C)NC(=O)[C@H](CCCCNC(=O)[C@H](CC(C)C)NC(=O)[C@H](CCCCN)NC(=O)[C@H](CCCCNC(=O)[C@H](CC(C)C)NC(=O)[C@@H](N)CCCCN)NC(=O)[C@H](CC(C)C)NC(=O)[C@@H](N)CCCCN)NC(=O)[C@H](CC(C)C)NC(=O)[C@H](CCCCN)NC(=O)[C@H](CCCCNC(=O)[C@H](CC(C)C)NC(=O)[C@@H](N)CCCCN)NC(=O)[C@H](CC(C)C)NC(=O)[C@@H](N)CCCCN)C(N)=O [YGO-009, (KL)8(KKL)4(KLKL)2(KKLL)] (I: H-KLK([Leu-Lys])KLKLKLKKLL-NH2 / II: H-KLK([Leu-Lys])KLKLKL / III: H-KLK([Leu-Lys])KL / IV: H-KLK([Leu-Lys])KL; amide I:6-IV:C, I:10-II:C, II:6-III:C)",2
2,"CC(C)C[C@H](NC(=O)[C@H](CCCCN)NC(=O)[C@H](CC(C)C)NC(=O)[C@H](CCCCNC(=O)[C@H](CC(C)C)NC(=O)[C@H](CCCCN)NC(=O)[C@H](CC(C)C)NC(=O)[C@H](CCCCNC(=O)[C@H](CC(C)C)NC(=O)[C@H](CCCCN)NC(=O)[C@H](CCCCNC(=O)[C@H](CC(C)C)NC(=O)[C@@H](N)CCCCN)NC(=O)[C@H](CC(C)C)NC(=O)[C@@H](N)CCCCN)NC(=O)[C@H](CC(C)C)NC(=O)[C@H](CCCCN)NC(=O)[C@H](CCCCNC(=O)[C@H](CC(C)C)NC(=O)[C@@H](N)CCCCN)NC(=O)[C@H](CC(C)C)NC(=O)[C@@H](N)CCCCN)NC(=O)[C@H](CC(C)C)NC(=O)[C@H](CCCCN)NC(=O)[C@H](CC(C)C)NC(=O)[C@H](CCCCNC(=O)[C@H](CC(C)C)NC(=O)[C@H](CCCCN)NC(=O)[C@H](CCCCNC(=O)[C@H](CC(C)C)NC(=O)[C@@H](N)CCCCN)NC(=O)[C@H](CC(C)C)NC(=O)[C@@H](N)CCCCN)NC(=O)[C@H](CC(C)C)NC(=O)[C@H](CCCCN)NC(=O)[C@H](CCCCNC(=O)[C@H](CC(C)C)NC(=O)[C@@H](N)CCCCN)NC(=O)[C@H](CC(C)C)NC(=O)[C@@H](N)CCCCN)C(N)=O [YGO-011, (KL)8(KKL)4(KLKL)2(KLKL)] (I: H-KLK([Leu-Lys])KLKLKLKLKL-NH2 / II: H-KLK([Leu-Lys])KLKLKL / III: H-KLK([Leu-Lys])KL / IV: H-KLK([Leu-Lys])KL; amide I:6-IV:C, I:10-II:C, II:6-III:C)",3
3,"CC(C)C[C@H](NC(=O)[C@H](CCN)NC(=O)[C@H](CCCCNC(=O)[C@H](CC(C)C)NC(=O)[C@H](CCN)NC(=O)[C@H](CCCCNC(=O)[C@H](CC(C)C)NC(=O)[C@@H](N)CCN)NC(=O)[C@H](CC(C)C)NC(=O)[C@@H](N)CCN)NC(=O)[C@H](CC(C)C)NC(=O)[C@H](CCN)NC(=O)[C@H](CCCCNC(=O)[C@H](CC(C)C)NC(=O)[C@@H](N)CCN)NC(=O)[C@H](CC(C)C)NC(=O)[C@@H](N)CCN)C(N)=O [MSt-201, (DabL)4(KDabL)2(KDabL)] (I: H-[Dab]LK([Leu-Dab])[Dab]LK[Dab]L-NH2 / II: H-[Dab]LK([Leu-Dab])[Dab]L; amide I:6-II:C; N-terminus assumed)",5
4,"CC(C)C[C@H](NC(=O)[C@H](CCCNC(=N)N)NC(=O)[C@H](CCCCNC(=O)[C@H](CC(C)C)NC(=O)[C@@H](N)CCCNC(=N)N)NC(=O)[C@H](CC(C)C)NC(=O)[C@@H](N)CCCNC(=N)N)C(=O)N[C@@H](CSSC[C@H](NC(=O)[C@H](CC(C)C)NC(=O)[C@H](CCCNC(=N)N)NC(=O)[C@H](CCCCNC(=O)[C@H](CC(C)C)NC(=O)[C@@H](N)CCCNC(=N)N)NC(=O)[C@H](CC(C)C)NC(=O)[C@@H](N)CCCNC(=N)N)C(N)=O)C(N)=O [CCS-19 dimer, ((RL)2KRLC)2] (I: H-RLK([Leu-Arg])RLC-NH2 / II: H-RLK([Leu-Arg])RLC-NH2; disulfide I:6-II:6; N-terminus assumed)",5
5,"CC(C)C[C@H](NC(=O)[C@H](CCCCNC(=O)[C@H](CCCCN)NC(=O)[C@H](CCCCNC(=O)[C@@H](N)CC(C)C)NC(=O)[C@@H](N)CC(C)C)NC(=O)[C@H](CCCCN)NC(=O)[C@H](CCCCNC(=O)[C@@H](N)CC(C)C)NC(=O)[C@@H](N)CC(C)C)C(=O)NCCCC[C@H](NC(=O)[C@H](CC(C)C)NC(=O)[C@H](CCCCNC(=O)[C@H](CCCCN)NC(=O)[C@H](CCCCNC(=O)[C@@H](N)CC(C)C)NC(=O)[C@@H](N)CC(C)C)NC(=O)[C@H](CCCCN)NC(=O)[C@H](CCCCNC(=O)[C@@H](N)CC(C)C)NC(=O)[C@@H](N)CC(C)C)C(=O)N[C@@H](CCCCN)C(N)=O [MSt-147, (L)8(KK)4(KL)2(KK)] (I: H-LK(Leu)KK([Lys-LeuLys(Leu)])LKK-NH2 / II: H-LK(Leu)KK([Lys-LeuLys(Leu)])L; amide I:6-II:C)",12
6,"CC(C)C[C@H](NC(=O)[C@H](CCCCN)NC(=O)[C@H](CCCCNC(=O)[C@H](CC(C)C)NC(=O)[C@H](CCCCN)NC(=O)[C@H](CCCCNC(=O)[C@H](CC(C)C)NC(=O)[C@@H](N)CCCCN)NC(=O)[C@H](CC(C)C)NC(=O)[C@@H](N)CCCCN)NC(=O)[C@H](CC(C)C)NC(=O)[C@H](CCCCN)NC(=O)[C@H](CCCCNC(=O)[C@H](CC(C)C)NC(=O)[C@@H](N)CCCCN)NC(=O)[C@H](CC(C)C)NC(=O)[C@@H](N)CCCCN)C(N)=O [MSt-146, (KL)4(KKL)2(KKL)] (I: H-KLK([Leu-Lys])KLKKL-NH2 / II: H-KLK([Leu-Lys])KL; amide I:6-II:C)",7
7,"CC(C)C[C@H](NC(=O)[C@H](CCCCN)NC(=O)[C@H](CCCCNC(=O)[C@H](CC(C)C)NC(=O)[C@@H](N)CCCCN)NC(=O)[C@H](CC(C)C)NC(=O)[C@@H](N)CCCCN)C(=O)N[C@@H](CSSC[C@H](NC(=O)[C@H](CC(C)C)NC(=O)[C@H](CCCCN)NC(=O)[C@H](CCCCNC(=O)[C@H](CC(C)C)NC(=O)[C@@H](N)CCCCN)NC(=O)[C@H](CC(C)C)NC(=O)[C@@H](N)CCCCN)C(N)=O)C(N)=O [CCS-5 dimer, ((KL)2KKLC)2] (I: H-KLK([Leu-Lys])KLC-NH2 / II: H-KLK([Leu-Lys])KLC-NH2; disulfide I:6-II:6)",15
8,"CC(C)C[C@H](NC(=O)[C@H](CCCCN)NC(=O)[C@H](CNC(=O)[C@H](CC(C)C)NC(=O)[C@H](CCCCN)NC(=O)[C@H](CNC(=O)[C@H](CC(C)C)NC(=O)[C@@H](N)CCCCN)NC(=O)[C@H](CC(C)C)NC(=O)[C@@H](N)CCCCN)NC(=O)[C@H](CC(C)C)NC(=O)[C@H](CCCCN)NC(=O)[C@H](CNC(=O)[C@H](CC(C)C)NC(=O)[C@@H](N)CCCCN)NC(=O)[C@H](CC(C)C)NC(=O)[C@@H](N)CCCCN)C(N)=O [MSt-138, (KL)4(BKL)2(BKL)] (I: H-KL[Dap]([Leu-Lys])KL[Dap]KL-NH2 / II: H-KL[Dap]([Leu-Lys])KL; amide I:6-II:C)",2
9,"CC(C)C[C@H](NC(=O)[C@H](CCCCN)NC(=O)[C@H](CC(C)C)NC(=O)[C@H](CCCCNC(=O)[C@H](CC(C)C)NC(=O)[C@H](CCCCN)NC(=O)[C@H](CCCCNC(=O)[C@H](CC(C)C)NC(=O)[C@@H](N)CCCCN)NC(=O)[C@H](CC(C)C)NC(=O)[C@@H](N)CCCCN)NC(=O)[C@H](CC(C)C)NC(=O)[C@H](CCCCN)NC(=O)[C@H](CCCCNC(=O)[C@H](CC(C)C)NC(=O)[C@@H](N)CCCCN)NC(=O)[C@H](CC(C)C)NC(=O)[C@@H](N)CCCCN)C(=O)NCCCC[C@H](NC(=O)[C@H](CC(C)C)NC(=O)[C@H](CCCCN)NC(=O)[C@H](CC(C)C)NC(=O)[C@H](CCCCNC(=O)[C@H](CC(C)C)NC(=O)[C@H](CCCCN)NC(=O)[C@H](CCCCNC(=O)[C@H](CC(C)C)NC(=O)[C@@H](N)CCCCN)NC(=O)[C@H](CC(C)C)NC(=O)[C@@H](N)CCCCN)NC(=O)[C@H](CC(C)C)NC(=O)[C@H](CCCCN)NC(=O)[C@H](CCCCNC(=O)[C@H](CC(C)C)NC(=O)[C@@H](N)CCCCN)NC(=O)[C@H](CC(C)C)NC(=O)[C@@H](N)CCCCN)C(=O)N[C@@H](CCCCN)C(=O)N[C@@H](CC(C)C)C(=O)N[C@@H](CCCCN)C(N)=O [YGO-010, (KL)8(KKL)4(KLKL)2(KKLK)] (I: H-KLK([Leu-Lys])KLKLKLKKLK-NH2 / II: H-KLK([Leu-Lys])KLKLKL / III: H-KLK([Leu-Lys])KL / IV: H-KLK([Leu-Lys])KL; amide I:6-IV:C, I:10-II:C, II:6-III:C)",3
